What was measured:
skin fibroblasts [1] = test: Viability of fibroblasts exposed to BSA reacted with ribose, resazurin dye; format: cell-based; conditions: positive control for preventing glycation; human dermal fibroblasts exposed to glycated protein
Protocol: In some examples discussed herein, comparison was made between the skin care compositions of the present technology and those containing pyridoxamine as a positive control. It was shown that a population of human dermal fibroblasts (HDFs) exposed to glycated proteins is generally expected to collapse. Specifically, glycated protein (such as bovine serum albumin, BSA), when added to normally cultured skin fibroblasts at a concentration in the range of 2 to 6 mg/mL, caused cell death within approximately 18 to 36 hours. […] A series of tests was conducted to evaluate the skin care compositions of the present technology, to see whether they could prevent the target protein of BSA from being toxic to skin fibroblasts. This was done by first reacting BSA with the sugar (ribose) in a buffered saline solution. Some of the reaction mixtures also contained pyridoxamine (a drug used here as the positive control known to prevent glycation) or the skin care compositions of the present technology. […] After exposure of the cells to these solutions at 37° C. for 24 hours, the viability of the cells was determined by adding a dye (resazurin) to the wells and incubating at 37° C. for another hour. […] The color change in the wells was then measured as optical density on a plate-reading spectrophotometer. […]

skin fibroblasts [2] = test: Viability and attachment of confluent fibroblasts exposed to BSA reacted with ribose, neutral red dye, microscopy; format: cell-based, human; conditions: BSA reacted with 100 millimolar ribose in presence of 10 millimolar pyridoxamine; 2 mg/mL BSA, 16 hours; FIG. 6
Protocol: A further series of tests was conducted to evaluate the skin care compositions of the present technology, to see whether they could prevent the target protein of BSA from being toxic to skin fibroblasts. This was done by first reacting BSA with the glycating sugar (ribose) in a buffered saline solution. Some of the reaction mixtures also contained pyridoxamine (a drug used here as the positive control known to prevent glycation) or the skin care compositions of the present technology. For this test, incubation of the sterile reaction mixtures was for two days at a temperature of about 45° C. After that, the reaction mixtures were extensively dialyzed against deionized water, removing all of the small molecules (ribose, salts, etc.) from the mixtures, leaving just the BSA. The resulting BSA solutions were then lyophilized (freeze-dried) to remove water, and the residues of BSA were resolubilized in a buffered saline solution. After measuring the protein concentration of each of these solutions, they were each added to a cell culture dish containing confluent fibroblasts to achieve a final BSA concentration of 2 milligrams per milliliter. After exposure of the cells to these solutions at 37° C. for 16 hours, the viability of the cells was determined by adding a dye (neutral red) to the plates and incubating at 37° C. for another hour. […]

In the case of `Cc1ncc(CO)c(CN)c1O` [pyridoxamine], the “effect on fibroblast collapse” value (skin fibroblasts [1]) is reported as “mitigated some of the collapse” and the “health of fibroblasts (neutral red uptake, attachment)” value (skin fibroblasts [2]) is reported as “have remained healthy”.
